Patent US20050175597A1 (priority 2002, published 2005)

Legend:
[1] = tested on: Lactobacillus plantarum; design: species or system mice; conditions: mouse, in vivo
[2] = tested on: Lactobacillus casei shirota; experiment: Lactobacillus casei shirota viable plate counts after SGF treatment with or without colostrum; conditions: L. casei shirota, no colostrum
[3] = tested on: Lactobacillus plantarum

## O=C([O-])O.[Na+] [sodium bicarbonate, Sodium bicarbonate]
[1]
  survival of Lactobacillus plantarum (large intestine, FIG. 7): increased
  survival of Lactobacillus plantarum at higher concentrations of protectant: increased survival

## Lactobacillus casei shirota [Lactobacillus + H2O]
[2]
  reduction in Lactobacillus viability: ≥ 10,000 fold

## Lactobacillus plantarum [Lactobacillus + H2O]
[3]
  reduction in Lactobacillus viability: 1000 fold
